# Data from article PMC6152727, “Potential of Icariin Metabolites from Epimedium koreanum Nakai as Antidiabetic Therapeutic Agents” (Molecules : A Journal of Synthetic Chemistry and Natural …, 2017).
# Key:
# Type in all cases: biochemical
# human recombinant PTP1B [1] = target: T1, human recombinant PTP1B (Homo sapiens, UniProt P18031); experiment: PTP1B activity assay (pNPP substrate); conditions: mean ± SEM of triplicate experiments
# T1 construct: purchased Biomol International LP (Plymouth Meeting, PA, USA)
# T1 sequence (P18031 1-435): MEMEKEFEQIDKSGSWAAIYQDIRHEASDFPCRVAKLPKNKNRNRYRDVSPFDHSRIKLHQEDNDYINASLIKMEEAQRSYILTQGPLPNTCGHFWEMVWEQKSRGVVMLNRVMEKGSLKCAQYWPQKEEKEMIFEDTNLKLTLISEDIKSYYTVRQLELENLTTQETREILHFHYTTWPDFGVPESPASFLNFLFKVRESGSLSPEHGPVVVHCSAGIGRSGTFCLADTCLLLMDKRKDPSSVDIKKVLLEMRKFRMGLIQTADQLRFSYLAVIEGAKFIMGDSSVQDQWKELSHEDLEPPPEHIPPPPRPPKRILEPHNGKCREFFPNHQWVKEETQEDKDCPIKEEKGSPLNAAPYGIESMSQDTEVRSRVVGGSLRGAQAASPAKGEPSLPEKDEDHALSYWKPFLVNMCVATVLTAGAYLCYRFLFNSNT
# Experimental: The abilities of the aerial parts of E. koreanum and their constituents to inhibit human recombinant PTP1B activity were evaluated using pNPP as a substrate. […] After incubation at 37 °C for 20 min in the dark, the reaction was terminated by addition of 10 M NaOH. The amount of p-nitrophenylate produced by enzymatic dephosphorylation of pNPP was determined by measuring the absorbance at 405 nm using a microplate spectrophotometer (Molecular Devices). Non-enzymatic dephosphorylation of pNPP was corrected by measuring the increase in absorbance at 405 nm obtained in the absence of PTP1B. […] The percent inhibition was calculated as {(AC − AS)/AC} × 100, where AC is the absorbance of the control, and AS is the absorbance of the sample. The IC50 is expressed as the mean ± SEM of triplicate experiments.
# yeast α-glucosidase = experiment: α-Glucosidase activity assay (pNPG substrate); conditions: for IC50: mean ± SEM of triplicate experiments, final concentration 20 to 300 μM
# Experimental: α-Glucosidase enzymatic activity was assayed spectrophotometrically as described previously. Briefly, 60 μL of reaction mixture containing 20 μL of 100 mM phosphate buffer (pH 6.8), 20 μL of 2.5 mM pNPG, and 20 μL of sample (final concentration ranging from 20 to 300 μM, dissolved in 10% DMSO) was added to each well. After incubation at 37 °C for 5 min in the dark, 20 μL of yeast α-glucosidase (0.2 U/mL) in 10 mM phosphate buffer (pH 6.8) was added. The plate was then incubated at 37 °C for 15 min in the dark, after which the reaction was stopped by the addition of 80 μL of 0.2 M sodium carbonate solution. The absorbance was immediately recorded at 405 nm using a microplate spectrophotometer (Molecular Devices). The control consisted of the same reaction mixture but with the sample solution replaced by an equivalent volume of phosphate buffer. […] The inhibition percentage (%) was obtained using the same equation as in the PTP1B enzymatic assay.
# human recombinant PTP1B [2] = target: T1, human recombinant PTP1B; experiment: Enzyme kinetics analysis of PTP1B (Lineweaver–Burk and Dixon plots); conditions: for PTP1B Inhibition Type: determined by the Lineweaver–Burk plot
# Experimental: The inhibition type and inhibition constant (Ki) of the two compounds were determined using Lineweaver–Burk and Dixon plots. Each line of the inhibitors penetrate the same point at the x-intercept, indicating noncompetitive-type inhibition, and the x-axis represent-Kiwhen 1/V = 0. […] The Dixon plot is an established method for determining the enzyme inhibition type and the Ki value for an enzyme-inhibitor complex, where the value of the x-axis indicates Ki.
# In order to determine the inhibition mechanism, two complementary kinetics methods were used: Lineweaver–Burk and Dixon plots. The level of enzymatic inhibition at various concentrations of test sample was evaluated by monitoring the effect of different substrate concentrations in Dixon plots (single reciprocal plots). Dixon plots for PTP1B inhibition were obtained in the presence of different concentrations of pNPP. Using Lineweaver–Burk plots (double reciprocal plots), the inhibition modes of the compounds were determined at various concentrations of pNPP with different concentrations of compounds. The enzymatic procedures were the same as for the PTP1B assay methods. The types of inhibition were investigated by interpreting the Dixon plots, in which the value of the x-axis indicates Ki.
IC50 (human recombinant PTP1B [1]),IC50 (yeast α-glucosidase),Ki (human recombinant PTP1B [2]; determined by the Dixon plot),Molecule,PTP1B Inhibition Type (human recombinant PTP1B [2]),α-glucosidase inhibition (in words) (yeast α-glucosidase; at any of the tested concentrations)
11.6 ± 1.39 µM,74.42 ± 0.01 µM,11.4 µM,"COc1ccc(-c2oc3c(CC=C(C)C)c(O)cc(O)c3c(=O)c2O)cc1 [Icaritin, icaritin]",Non-competitive,
> 300 µM,,,"COc1ccc(-c2oc3c(CC=C(C)C)c(O[C@@H]4O[C@H](CO)[C@@H](O)[C@H](O)[C@H]4O)cc(O)c3c(=O)c2O[C@@H]2O[C@@H](C)[C@H](O)[C@@H](O)[C@H]2O)cc1 [Icariin, icariin]",,did not inhibit α-glucosidase activity at any of the tested concentrations

# More lines, now with the values behind:
Molecule,IC50 (human recombinant PTP1B [1]),IC50 (yeast α-glucosidase),Ki (human recombinant PTP1B [2]; determined by the Dixon plot),PTP1B Inhibition Type (human recombinant PTP1B [2]),α-glucosidase inhibition (in words) (yeast α-glucosidase; at any of the tested concentrations)
"COc1ccc(-c2oc3c(CC=C(C)C)c(OC4OC(CO)C(O)C(O)C4O)cc(O)c3c(=O)c2OC2OC(C)C(O)C(O)C2OC2OC(CO)C(O)C(O)C2O)cc1 (centres unmarked) [Epimedin A, epimedin A]",> 300 µM,444.1 ± 3.8 µM,,,
icariside II,,106.6 ± 0.44 µM,,Non-competitive,
"COc1ccc(-c2oc3c(CC=C(C)C)c(O[C@@H]4O[C@H](CO)[C@@H](O)[C@H](O)[C@H]4O)cc(O)c3c(=O)c2O[C@@H]2O[C@@H](C)[C@H](O)[C@@H](O)[C@H]2O[C@@H]2O[C@@H](C)[C@H](O)[C@@H](O)[C@H]2O)cc1 [Epimedin C, epimedin C]",> 300 µM,403.9 ± 1.53 µM,,,
"COc1ccc(-c2oc3c(CC=C(C)C)c(O[C@@H]4O[C@H](CO)[C@@H](O)[C@H](O)[C@H]4O)cc(O)c3c(=O)c2O[C@@H]2O[C@@H](C)[C@H](O)[C@@H](O)[C@H]2O[C@@H]2OC[C@@H](O)[C@H](O)[C@H]2O)cc1 [Epimedin B, epimedin B]",> 300 µM,452 ± 5.36 µM,,,
